ChEMBL document CHEMBL1201861, “Genomics of Drug Sensitity in Cancer screening data, Wellcome Trust Sanger Institute”

What was measured:
Assay in all cases: cells
CAKI-1 = assay type: functional, cell-based, Homo sapiens; details: Homo sapiens, CAKI-1;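 also: growth inhibition of CAKI-1 cells, measured by a cell viability assay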
Description: SANGER: Inhibition of human CAKI-1 cell growth in a cell viability assay.

HT-29 = assay type: functional, cell-based, Homo sapiens; details: Homo sapiens, HT-29;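 also: growth inhibition of human HT-29 cells, read out by a cell viability assay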
Description: SANGER: Inhibition of human HT-29 cell growth in a cell viability assay.

DMS-273 = assay type: functional, cell-based, Homo sapiens; details: Homo sapiens, DMS-273
Description: SANGER: Inhibition of human DMS-273 cell growth in a cell viability assay.

T84 = assay type: functional, cell-based, Homo sapiens; details: Homo sapiens, T84;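 also: growth inhibition measured with a cell viability readout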
Description: SANGER: Inhibition of human T84 cell growth in a cell viability assay.

SK-MEL-30 = assay type: functional, cell-based; details: Homo sapiens;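 also: growth inhibition of SK-MEL-30 cells, determined with a cell viability assay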
Description: SANGER: Inhibition of human SK-MEL-30 cell growth in a cell viability assay.

HT-144 = assay type: functional, cell-based, Homo sapiens; details: Homo sapiens, HT-144
Description: SANGER: Inhibition of human HT-144 cell growth in a cell viability assay.

TE-1 = assay type: functional, cell-based, Homo sapiens; details: Homo sapiens, TE-1;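 also: growth inhibition of the human TE-1 cell line, read out with a cell viability assay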
Description: SANGER: Inhibition of human TE-1 cell growth in a cell viability assay.

KMOE-2 = assay type: functional, cell-based; details: Homo sapiens;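 also: growth inhibition of human KMOE-2 cells, read out with a cell viability assay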
Description: SANGER: Inhibition of human KMOE-2 cell growth in a cell viability assay.

FTC-133 = assay type: functional, cell-based, Homo sapiens; details: Homo sapiens, FTC-133
SF-539 = assay type: functional, cell-based, Homo sapiens; details: Homo sapiens, SF-539;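 also: Read-out is a cell viability assay, with IC50 reflecting inhibition of cell growth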
Description: SANGER: Inhibition of human SF539 cell growth in a cell viability assay.

RCM-1 = assay type: functional, cell-based, Homo sapiens; details: Homo sapiens, RCM-1;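 also: growth inhibition of the RCM-1 line, determined with a cell viability readout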
Description: SANGER: Inhibition of human RCM-1 cell growth in a cell viability assay.

SH-4 = assay type: functional, cell-based, Homo sapiens; details: Homo sapiens, SH-4;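 also: growth inhibition of SH-4 cells, read out with a cell viability assay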
Description: SANGER: Inhibition of human SH-4 cell growth in a cell viability assay.

KINGS-1 = assay type: functional, cell-based, Homo sapiens; details: Homo sapiens, KINGS-1;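 also: cell viability assay measuring suppression of KINGS-1 cell growth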
Description: SANGER: Inhibition of human KINGS-1 cell growth in a cell viability assay.

DB = assay type: functional, cell-based; details: Homo sapiens
Description: SANGER: Inhibition of human DB cell growth in a cell viability assay.

HCC2157 = assay type: functional, cell-based; details: Homo sapiens;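 also: growth inhibition of the cancer cell line, read out as cell viability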
Description: SANGER: Inhibition of human HCC2157 cell growth in a cell viability assay.

NCI-H1793 = assay type: functional, cell-based, Homo sapiens; details: Homo sapiens, NCI-H1793;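 also: cell growth inhibition, read out by a cell viability assay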
Description: SANGER: Inhibition of human NCI-H1793 cell growth in a cell viability assay.

BB30-HNC = assay type: functional, cell-based, Homo sapiens; details: Homo sapiens, BB30-HNC;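 also: growth inhibition of the cultured cell line, read out by a cell viability assay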
Description: SANGER: Inhibition of human BB30-HNC cell growth in a cell viability assay.

SW1088 = assay type: functional, cell-based, Homo sapiens; details: Homo sapiens, SW1088;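 also: growth inhibition of human SW1088 cells, read out by a cell viability assay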
Description: SANGER: Inhibition of human SW1088 cell growth in a cell viability assay.

HAL-01 = assay type: functional, cell-based; details: Homo sapiens;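 also: growth inhibition of human HAL-01 cells, read out with a cell viability assay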
Description: SANGER: Inhibition of human HAL-01 cell growth in a cell viability assay.

NCI-H1395 = assay type: functional, cell-based, Homo sapiens; details: Homo sapiens, NCI-H1395;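 also: cell viability assay read-out quantifying reduced proliferation of human NCI-H1395 cells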
Description: SANGER: Inhibition of human NCI-H1395 cell growth in a cell viability assay.

HCC 2998 = assay type: functional, cell-based, Homo sapiens; details: Homo sapiens, HCC 2998;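 also: growth inhibition of human HCC2998 cells, measured with a cell viability read-out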
Description: SANGER: Inhibition of human HCC2998 cell growth in a cell viability assay.

RKO = assay type: functional, cell-based, Homo sapiens; details: Homo sapiens, RKO;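 also: growth inhibition of human RKO cells, read out with a cell viability assay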
Description: SANGER: Inhibition of human RKO cell growth in a cell viability assay.

IGR-1 = assay type: functional, cell-based, Homo sapiens; details: Homo sapiens, IGR-1;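 also: growth inhibition of human IGR-1 cells, read out with a cell viability assay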
Description: SANGER: Inhibition of human IGR-1 cell growth in a cell viability assay.

SAS = assay type: functional, cell-based, Homo sapiens; details: Homo sapiens, SAS;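 also: growth inhibition of SAS cells, read out with a cell viability assay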
Description: SANGER: Inhibition of human SAS cell growth in a cell viability assay.

SK-MEL-1 = assay type: functional, cell-based; details: Homo sapiens;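 also: growth inhibition of human SK-MEL-1 cells, read out by a cell viability assay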
Description: SANGER: Inhibition of human SK-MEL-1 cell growth in a cell viability assay.

KYSE-510 = assay type: functional, cell-based, Homo sapiens; details: Homo sapiens, KYSE-510;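 also: cell viability readout used to measure how strongly growth of the cell line is suppressed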
Description: SANGER: Inhibition of human KYSE-510 cell growth in a cell viability assay.

LB771-HNC = assay type: functional, cell-based, Homo sapiens; details: Homo sapiens, LB771-HNC;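 also: growth inhibition of LB771-HNC human cells, read out with a cell viability assay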
Description: SANGER: Inhibition of human LB771-HNC cell growth in a cell viability assay.

TE-8 = assay type: functional, cell-based, Homo sapiens; details: Homo sapiens, TE-8;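 also: growth inhibition of TE-8 cells, measured with a cell viability readout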
Description: SANGER: Inhibition of human TE-8 cell growth in a cell viability assay.

SW780 = assay type: functional, cell-based, Homo sapiens; details: Homo sapiens, SW780;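 also: growth inhibition of the cells, read out with a cell viability assay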
Description: SANGER: Inhibition of human SW780 cell growth in a cell viability assay.

RPMI-8226 = assay type: functional, cell-based; details: Homo sapiens
Description: SANGER: Inhibition of human RPMI-8226 cell growth in a cell viability assay.

MDA-MB-231 = assay type: functional, cell-based, Homo sapiens; details: Homo sapiens, MDA-MB-231
Description: SANGER: Inhibition of human MDA-MB-231 cell growth in a cell viability assay.

ATN-1 = assay type: functional, cell-based; details: Homo sapiens;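 also: growth inhibition of human ATN-1 cells, read out with a cell viability assay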
Description: SANGER: Inhibition of human ATN-1 cell growth in a cell viability assay.

LXF-289 cell line = assay type: functional, cell-based, Homo sapiens; details: Homo sapiens, LXF-289
Description: SANGER: Inhibition of human LXF-289 cell growth in a cell viability assay.

NCI-H292 = assay type: functional, cell-based, Homo sapiens; details: Homo sapiens, NCI-H292;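 also: growth inhibition of NCI-H292 cells, read out with a cell viability assay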
Description: SANGER: Inhibition of human NCI-H292 cell growth in a cell viability assay.

TK-10 = assay type: functional, cell-based, Homo sapiens; details: Homo sapiens, TK-10;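 also: growth inhibition of TK-10 cells, read out in a cell viability assay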
Description: SANGER: Inhibition of human TK10 cell growth in a cell viability assay.

SW1783 = assay type: functional, cell-based; details: Homo sapiens;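 also: cell growth inhibition measured with a viability assay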
Description: SANGER: Inhibition of human SW1783 cell growth in a cell viability assay.

NCI-H1155 = assay type: functional, cell-based; details: Homo sapiens;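 also: cell growth inhibition measured by a viability assay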
Description: SANGER: Inhibition of human NCI-H1155 cell growth in a cell viability assay.

KOSC-2 = assay type: functional, cell-based, Homo sapiens; details: Homo sapiens, KOSC-2;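 also: growth inhibition of KOSC-2 cells, read out by a cell viability assay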
Description: SANGER: Inhibition of human KOSC-2 cell growth in a cell viability assay.

L-363 = assay type: functional, cell-based; details: Homo sapiens
Description: SANGER: Inhibition of human L-363 cell growth in a cell viability assay.

ACHN = assay type: functional, cell-based, Homo sapiens; details: Homo sapiens, ACHN;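 also: cell viability read-out used to gauge how strongly growth of human ACHN cells is suppressed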
Description: SANGER: Inhibition of human ACHN cell growth in a cell viability assay.

BB65-RCC = assay type: functional, cell-based, Homo sapiens; details: Homo sapiens, BB65-RCC;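 also: growth inhibition of the cell line, measured with a cell viability assay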
Description: SANGER: Inhibition of human BB65-RCC cell growth in a cell viability assay.

NCI-N87 = assay type: functional, cell-based, Homo sapiens; details: Homo sapiens, NCI-N87;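 also: growth inhibition of human NCI-N87 cells, read out with a cell viability assay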
Description: SANGER: Inhibition of human NCI-N87 cell growth in a cell viability assay.

EOL1 = assay type: functional, cell-based; details: Homo sapiens;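 also: growth inhibition of EoL-1 cells, read out by a cell viability assay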
Description: SANGER: Inhibition of human EoL-1-cell cell growth in a cell viability assay.

MZ1-PC = assay type: functional, cell-based, Homo sapiens; details: Homo sapiens, MZ1-PC;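 also: cell viability assay measuring growth inhibition of human MZ1-PC cells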
Description: SANGER: Inhibition of human MZ1-PC cell growth in a cell viability assay.

RPMI-7951 = assay type: functional, cell-based, Homo sapiens; details: Homo sapiens, RPMI-7951
Description: SANGER: Inhibition of human RPMI-7951 cell growth in a cell viability assay.

U-87 MG = assay type: functional, cell-based, U-87MG ATCC; details: Homo sapiens;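 also: growth inhibition of the cells measured with a viability assay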
Description: SANGER: Inhibition of human U-87-MG cell growth in a cell viability assay.

EFM-19 = assay type: functional, cell-based, Homo sapiens; details: Homo sapiens, EFM-19;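 also: growth inhibition of human EFM-19 cells, measured in a cell viability assay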
Description: SANGER: Inhibition of human EFM-19 cell growth in a cell viability assay.

SW 954 = assay type: functional, cell-based, Homo sapiens; details: Homo sapiens, SW 954;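 also: growth inhibition of SW954 human cancer cells, read out as cell viability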
Description: SANGER: Inhibition of human SW954 cell growth in a cell viability assay.

NTERA-2-cl-D1 = assay type: functional, cell-based, Homo sapiens; details: Homo sapiens, NTERA-2-cl-D1;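 also: inhibition of cell growth, measured with a cell viability assay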
Description: SANGER: Inhibition of human NTERA-S-cl-D1 cell growth in a cell viability assay.

8505C = assay type: functional, cell-based, Homo sapiens; details: Homo sapiens, 8505C
Description: SANGER: Inhibition of human 8505C cell growth in a cell viability assay.

Panc1005 = assay type: functional, cell-based, Homo sapiens; details: Homo sapiens, Panc1005;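 also: growth inhibition of human PANC-10-05 cells, measured by a cell viability assay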
Description: SANGER: Inhibition of human PANC-10-05 cell growth in a cell viability assay.

MZ7-mel = assay type: functional, cell-based, Homo sapiens; details: Homo sapiens, MZ7-mel;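 also: growth inhibition of human MZ7-mel cells, measured by a cell viability assay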
Description: SANGER: Inhibition of human MZ7-mel cell growth in a cell viability assay.

C[C@]1(O)C[C@@H](c2nc(-c3ccc4ccc(-c5ccccc5)nc4c3)c3c(N)nccn32)C1 [LINSITINIB]
IC50 (CAKI-1): > 2560 nM | IC50 (HT-29): 242 nM | IC50 (DMS-273): > 2560 nM | IC50 (T84): 1210 nM | IC50 (SK-MEL-30): > 2560 nM | IC50 (HT-144): 262 nM | IC50 (TE-1): 1710 nM | IC50 (KMOE-2): > 2560 nM | IC50 (FTC-133): > 2560 nM | IC50 (SF-539): > 2560 nM | IC50 (RCM-1): > 2560 nM | IC50 (SH-4): > 2560 nM | IC50 (KINGS-1): > 2560 nM | IC50 (DB): > 2560 nM | IC50 (HCC2157): > 2560 nM | IC50 (NCI-H1793): > 2560 nM | IC50 (BB30-HNC): > 2560 nM | IC50 (SW1088): > 2560 nM | IC50 (HAL-01): > 2560 nM | IC50 (NCI-H1395): > 2560 nM | IC50 (HCC 2998): 883 nM | IC50 (RKO): > 2560 nM | IC50 (IGR-1): > 2560 nM | IC50 (SAS): > 2560 nM | IC50 (SK-MEL-1): > 2560 nM | IC50 (KYSE-510): > 2560 nM | IC50 (LB771-HNC): 259 nM | IC50 (TE-8): 1310 nM | IC50 (SW780): > 2560 nM | IC50 (RPMI-8226): > 2560 nM | IC50 (MDA-MB-231): > 2560 nM | IC50 (ATN-1): > 2560 nM | IC50 (LXF-289 cell line): > 2560 nM | IC50 (NCI-H292): > 2560 nM | IC50 (TK-10): > 2560 nM | IC50 (SW1783): > 2560 nM | IC50 (NCI-H1155): > 2560 nM | IC50 (KOSC-2): > 2560 nM | IC50 (L-363): 1340 nM | IC50 (ACHN): > 2560 nM | IC50 (BB65-RCC): > 2560 nM | IC50 (NCI-N87): > 2560 nM | IC50 (EOL1): > 2560 nM | IC50 (MZ1-PC): > 2560 nM | IC50 (RPMI-7951): > 2560 nM | IC50 (U-87 MG): > 2560 nM | IC50 (EFM-19): > 2560 nM | IC50 (SW 954): > 2560 nM | IC50 (NTERA-2-cl-D1): > 2560 nM | IC50 (8505C): > 2560 nM | IC50 (Panc1005): > 2560 nM | IC50 (MZ7-mel): > 2560 nM

C=CCc1cccc(/C=N/NC(=O)CN2CCN(Cc3ccccc3)CC2)c1O [PAC-1]
IC50 (CAKI-1): > 2560 nM | IC50 (HT-29): > 2560 nM | IC50 (DMS-273): > 2560 nM | IC50 (T84): 1030 nM | IC50 (SK-MEL-30): > 2560 nM | IC50 (HT-144): 2500 nM | IC50 (TE-1): > 2560 nM | IC50 (KMOE-2): > 2560 nM | IC50 (FTC-133): > 2560 nM | IC50 (SF-539): > 2560 nM | IC50 (RCM-1): > 2560 nM | IC50 (SH-4): > 2560 nM | IC50 (KINGS-1): > 2560 nM | IC50 (DB): > 2560 nM | IC50 (HCC2157): > 2560 nM | IC50 (NCI-H1793): > 2560 nM | IC50 (BB30-HNC): > 2560 nM | IC50 (SW1088): > 2560 nM | IC50 (HAL-01): 788 nM | IC50 (NCI-H1395): > 2560 nM | IC50 (HCC 2998): 1180 nM | IC50 (RKO): > 2560 nM | IC50 (IGR-1): > 2560 nM | IC50 (SAS): > 2560 nM | IC50 (SK-MEL-1): > 2560 nM | IC50 (KYSE-510): 1830 nM | IC50 (LB771-HNC): > 2560 nM | IC50 (TE-8): > 2560 nM | IC50 (SW780): > 2560 nM | IC50 (RPMI-8226): > 2560 nM | IC50 (MDA-MB-231): > 2560 nM | IC50 (ATN-1): > 2560 nM | IC50 (LXF-289 cell line): > 2560 nM | IC50 (NCI-H292): > 2560 nM | IC50 (TK-10): > 2560 nM | IC50 (SW1783): > 2560 nM | IC50 (NCI-H1155): > 2560 nM | IC50 (KOSC-2): > 2560 nM | IC50 (L-363): > 2560 nM | IC50 (ACHN): 1690 nM | IC50 (BB65-RCC): > 2560 nM | IC50 (NCI-N87): > 2560 nM | IC50 (EOL1): > 2560 nM | IC50 (MZ1-PC): > 2560 nM | IC50 (RPMI-7951): > 2560 nM | IC50 (U-87 MG): > 2560 nM | IC50 (EFM-19): 1950 nM | IC50 (SW 954): > 2560 nM | IC50 (NTERA-2-cl-D1): > 2560 nM | IC50 (8505C): > 2560 nM | IC50 (Panc1005): > 2560 nM | IC50 (MZ7-mel): 2560 nM
